Experiments:
Assay in all cases: Kinase Hotspot radiolabel assay
Type in all cases: biochemical
Details in all cases: read-out: % Residual Activity
TSSK3/STK22C = biological target: T1, TSSK3/STK22C (Homo sapiens, UniProt Q96PN8)
T1 construct: purchased Reaction Biology Corporation (Kinase HotSpot)
Method: (§1) Kinase assay. The ADP Glo^TM kinase assay (Promega, Madison, WI, USA) was used to assess the inhibition by CDDD11-8 of CDKs 1, 2, 4, 6, 7, and 9, as well as the mutant isoforms of FLT3. The assays were performed in accord with the manufacturer’s protocol (Promega) as described previously. Briefly, serial three-fold dilutions of CDDD11-8 were prepared in 100% DMSO from a 2 mM stock solution, followed by 1:40 dilution into Milli-Q water. Subsequently, 1 µL of each sample was incubated with 4 µL of kinase mixture containing a particular CDK enzyme and its substrate, standard kinase buffer [3 mM MgCl2, 50 mM HEPES-NaOH pH 7.5, 3 mM MnCl2, 3 µM Na-orthovanadate, 1 mM dithiothreitol (DTT)], kinase dilution buffer (containing 0.25 mg/mL PEG20,000, 50 mM HEPES-NaOH pH 7.5, 1 mM DTT), and ATP at 37 °C for 30 to 40 min. The final reaction mixture contained 0.5% DMSO in all samples, and the applied kinase concentrations were 1, 1, 10, 40, 20, and 50 nM for CDK1, 2, 4, 6, 7, and 9, respectively. The reaction was stopped by adding ADP-Glo reagent and the mixture was incubated further in the dark at room temperature for 40 min. As a final step, kinase detection reagent was added to each mixture and incubated at room temperature for 30 to 60 min. Luminescence was read using an EnVision® multilabel plate reader (PerkinElmer, Beaconsfield, UK), and half-maximum inhibitory concentrations (IC50) were calculated using a non-linear regression model with a variable slope, plotting log (inhibitor concentration) vs. response using the following formula: Ar%=Bottom+Top−Bottom/1+Inhibitor Concentration/IC50^HillSlope where the relative activity Ar (%) is the signal relative to the controls, IC50 is the half maximum concentration, Hillslope is the steepness of the dose-response curve, Top and Bottom are plateaus reflecting the maximum and minimum in responses on the Y-axis (GraphPad Prism version 7, San Diego, CA, USA). Ki values were calculated from the IC50 using the Cheng−Prusoff equation [32]. Extensive specificity assessment was carried out by Reaction Biology Corporation (Malvern, PA, USA) with 369 kinases using 1 µM CDDD11-8 concentration in a Kinase Hotspot radiolabel assay (for experimental details, please see (Reaction Biology https://www.reactionbiology.com/). Subsequently, Ki values were determined for kinases with greater than 90% inhibition.

TYK1/LTK = biological target: T2, TYK1/LTK (Homo sapiens, UniProt P29376)
T2 construct: purchased Reaction Biology Corporation (Kinase HotSpot)
Method: as §1

CHK2 = biological target: T3, CHK2 (Homo sapiens, UniProt O96017)
T3 construct: purchased Reaction Biology Corporation (Kinase HotSpot)
Method: as §1

PLK2 = biological target: T4, PLK2 (Homo sapiens, UniProt Q9NYY3)
T4 construct: purchased Reaction Biology Corporation (Kinase HotSpot)
Method: as §1

LKB1 = biological target: T5, LKB1 (Homo sapiens, UniProt Q15831)
T5 construct: purchased Reaction Biology Corporation (Kinase HotSpot)
Method: as §1

TTBK2 = biological target: T6, TTBK2 (Homo sapiens, UniProt Q6IQ55)
T6 construct: purchased Reaction Biology Corporation (Kinase HotSpot)
Method: as §1

CTK/MATK = biological target: T7, CTK/MATK (Homo sapiens, UniProt P42679)
T7 construct: purchased Reaction Biology Corporation (Kinase HotSpot)
Method: as §1

JNK2 = biological target: T8, JNK2 (Homo sapiens, UniProt P45984)
T8 construct: purchased Reaction Biology Corporation (Kinase HotSpot)
Method: as §1

MLCK2/MYLK2 = biological target: T9, MLCK2/MYLK2 (Homo sapiens, UniProt Q9H1R3)
T9 construct: purchased Reaction Biology Corporation (Kinase HotSpot)
Method: as §1

PKN2/PRK2 = biological target: T10, PKN2/PRK2 (Homo sapiens, UniProt Q16513)
T10 construct: purchased Reaction Biology Corporation (Kinase HotSpot)
Method: as §1

TRKC = biological target: T11, TRKC (Homo sapiens, UniProt Q16288)
T11 construct: purchased Reaction Biology Corporation (contract assay)
Method: as §1

VRK1 = biological target: T12, VRK1 (Homo sapiens, UniProt Q99986)
T12 construct: purchased Reaction Biology Corporation (Kinase HotSpot)
Method: as §1

ALK3/BMPR1A = biological target: T13, ALK3/BMPR1A (Homo sapiens, UniProt P36894)
T13 construct: purchased Reaction Biology Corporation (Kinase HotSpot)
Method: as §1

CDK3/cyclin E = biological target: T14, CDK3/cyclin E (Homo sapiens, UniProt Q00526)
T14 construct: purchased Reaction Biology Corporation (Kinase HotSpot)
Method: as §1

TRKB = biological target: T15, TRKB (Homo sapiens, UniProt Q16620)
T15 construct: purchased Reaction Biology Corporation (Kinase HotSpot)
Method: as §1

NEK2 = biological target: T16, NEK2 (Homo sapiens, UniProt P51955)
T16 construct: purchased Reaction Biology Corporation (Kinase HotSpot)
Method: as §1

TAK1 = biological target: T17, TAK1 (Homo sapiens, UniProt O43318)
T17 construct: purchased Reaction Biology Corporation (Kinase HotSpot)
Method: as §1

CAMK1g = biological target: T18, CAMK1g (Homo sapiens, UniProt Q96NX5)
T18 construct: purchased Reaction Biology Corporation (Kinase HotSpot)
Method: as §1

SGK1 = biological target: T19, SGK1 (Homo sapiens, UniProt O00141)
T19 construct: purchased Reaction Biology Corporation (Kinase HotSpot)
Method: as §1

MST1/STK4 = biological target: T20, MST1/STK4 (Homo sapiens, UniProt Q13043)
T20 construct: purchased Reaction Biology Corporation (Kinase HotSpot)
Method: as §1

CDK2/cyclin A = biological target: T21, CDK2/cyclin A (Homo sapiens, UniProt P24941)
T21 construct: purchased Reaction Biology Corporation (Kinase HotSpot)
Method: as §1

CDK16/cyclin Y (PCTAIRE) = biological target: T22, CDK16/cyclin Y (PCTAIRE) (Homo sapiens, UniProt Q00536)
T22 construct: purchased Reaction Biology Corporation (Kinase HotSpot)
Method: as §1

ABL1 = biological target: T23, ABL1 (Homo sapiens, UniProt P00519)
T23 construct: purchased Reaction Biology Corporation (Kinase HotSpot)
Method: as §1

DCAMKL1 = biological target: T24, DCAMKL1 (Homo sapiens, UniProt O15075)
T24 construct: purchased Reaction Biology Corporation (Kinase HotSpot)
Method: as §1

TXK = biological target: T25, TXK (Homo sapiens, UniProt P42681)
T25 construct: purchased Reaction Biology Corporation (Kinase HotSpot)
Method: as §1

TAOK3/JIK = biological target: T26, TAOK3/JIK (Homo sapiens, UniProt Q9H2K8)
T26 construct: purchased Reaction Biology Corporation (Kinase HotSpot)
Method: as §1

ARK5/NUAK1 = biological target: T27, ARK5/NUAK1 (Homo sapiens, UniProt O60285)
T27 construct: purchased Reaction Biology Corporation (Kinase HotSpot)
Method: as §1

PKCeta = biological target: T28, PKCeta (Homo sapiens, UniProt P24723)
T28 construct: purchased Reaction Biology Corporation (Kinase HotSpot)
Method: as §1

CAMK2g = biological target: T29, CAMK2g (Homo sapiens, UniProt Q13555)
T29 construct: purchased Reaction Biology Corporation (Kinase HotSpot)
Method: as §1

JAK3 = biological target: T30, JAK3 (Homo sapiens, UniProt P52333)
T30 construct: purchased Reaction Biology Corporation (Kinase HotSpot)
Method: as §1

T19 sequence (O00141 whole entry): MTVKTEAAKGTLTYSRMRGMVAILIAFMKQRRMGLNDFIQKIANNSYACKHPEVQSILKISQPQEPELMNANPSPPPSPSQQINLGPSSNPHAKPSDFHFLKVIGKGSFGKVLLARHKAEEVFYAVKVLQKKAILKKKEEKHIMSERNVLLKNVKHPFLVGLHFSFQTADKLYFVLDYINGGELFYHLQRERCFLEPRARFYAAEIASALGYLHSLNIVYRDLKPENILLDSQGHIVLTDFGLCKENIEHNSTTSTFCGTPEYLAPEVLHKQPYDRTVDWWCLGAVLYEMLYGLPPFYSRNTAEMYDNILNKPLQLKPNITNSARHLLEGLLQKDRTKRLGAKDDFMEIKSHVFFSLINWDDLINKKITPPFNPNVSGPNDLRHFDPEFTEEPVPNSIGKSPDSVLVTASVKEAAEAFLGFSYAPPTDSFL
T8 sequence (P45984 whole entry): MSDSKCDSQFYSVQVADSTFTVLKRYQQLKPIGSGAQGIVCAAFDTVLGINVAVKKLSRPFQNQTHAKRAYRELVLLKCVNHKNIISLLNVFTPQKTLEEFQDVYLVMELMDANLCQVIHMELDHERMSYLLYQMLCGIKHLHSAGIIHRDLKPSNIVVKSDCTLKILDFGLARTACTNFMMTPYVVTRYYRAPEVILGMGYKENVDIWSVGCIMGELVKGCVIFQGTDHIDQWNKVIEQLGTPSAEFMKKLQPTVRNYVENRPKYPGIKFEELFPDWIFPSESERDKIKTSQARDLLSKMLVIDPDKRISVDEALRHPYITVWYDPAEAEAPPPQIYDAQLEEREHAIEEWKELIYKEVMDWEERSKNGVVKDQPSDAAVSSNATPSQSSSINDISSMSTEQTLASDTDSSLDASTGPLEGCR
T29 sequence (Q13555 whole entry): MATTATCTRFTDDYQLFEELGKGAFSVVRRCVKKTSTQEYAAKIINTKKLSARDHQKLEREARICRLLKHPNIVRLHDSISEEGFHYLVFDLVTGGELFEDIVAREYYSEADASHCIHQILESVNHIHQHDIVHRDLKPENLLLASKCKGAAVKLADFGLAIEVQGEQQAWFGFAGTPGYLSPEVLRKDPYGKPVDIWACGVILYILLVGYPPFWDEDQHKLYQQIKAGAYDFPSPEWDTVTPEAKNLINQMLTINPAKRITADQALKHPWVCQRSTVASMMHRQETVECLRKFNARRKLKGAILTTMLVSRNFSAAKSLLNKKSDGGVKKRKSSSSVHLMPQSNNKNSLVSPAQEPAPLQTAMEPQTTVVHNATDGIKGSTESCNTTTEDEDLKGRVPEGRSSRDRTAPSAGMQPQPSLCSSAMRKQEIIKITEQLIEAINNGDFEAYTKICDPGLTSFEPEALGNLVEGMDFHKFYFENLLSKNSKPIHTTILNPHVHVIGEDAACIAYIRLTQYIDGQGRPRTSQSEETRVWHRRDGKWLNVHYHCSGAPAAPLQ
T11 sequence (Q16288 32-839): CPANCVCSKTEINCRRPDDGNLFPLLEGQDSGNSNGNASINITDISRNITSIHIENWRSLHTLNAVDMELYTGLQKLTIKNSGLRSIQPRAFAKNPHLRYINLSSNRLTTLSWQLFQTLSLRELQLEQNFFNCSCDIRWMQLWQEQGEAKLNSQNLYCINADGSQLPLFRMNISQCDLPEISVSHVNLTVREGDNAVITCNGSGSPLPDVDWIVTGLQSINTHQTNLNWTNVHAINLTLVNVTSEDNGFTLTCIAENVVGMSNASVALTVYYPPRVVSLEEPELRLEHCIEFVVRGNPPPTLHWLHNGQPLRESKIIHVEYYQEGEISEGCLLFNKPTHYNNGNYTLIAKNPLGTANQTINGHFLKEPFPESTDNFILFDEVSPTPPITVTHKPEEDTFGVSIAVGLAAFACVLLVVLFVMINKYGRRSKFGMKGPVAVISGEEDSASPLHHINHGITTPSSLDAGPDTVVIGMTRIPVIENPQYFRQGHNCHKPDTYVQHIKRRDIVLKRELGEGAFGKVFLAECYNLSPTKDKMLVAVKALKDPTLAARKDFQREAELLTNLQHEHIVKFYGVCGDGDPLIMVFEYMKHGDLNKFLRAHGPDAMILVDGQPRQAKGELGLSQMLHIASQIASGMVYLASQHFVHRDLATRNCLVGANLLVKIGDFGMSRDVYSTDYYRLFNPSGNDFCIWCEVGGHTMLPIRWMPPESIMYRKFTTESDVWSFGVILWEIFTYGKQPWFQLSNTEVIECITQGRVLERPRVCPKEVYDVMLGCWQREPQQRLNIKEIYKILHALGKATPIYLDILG
T27 sequence (O60285 whole entry): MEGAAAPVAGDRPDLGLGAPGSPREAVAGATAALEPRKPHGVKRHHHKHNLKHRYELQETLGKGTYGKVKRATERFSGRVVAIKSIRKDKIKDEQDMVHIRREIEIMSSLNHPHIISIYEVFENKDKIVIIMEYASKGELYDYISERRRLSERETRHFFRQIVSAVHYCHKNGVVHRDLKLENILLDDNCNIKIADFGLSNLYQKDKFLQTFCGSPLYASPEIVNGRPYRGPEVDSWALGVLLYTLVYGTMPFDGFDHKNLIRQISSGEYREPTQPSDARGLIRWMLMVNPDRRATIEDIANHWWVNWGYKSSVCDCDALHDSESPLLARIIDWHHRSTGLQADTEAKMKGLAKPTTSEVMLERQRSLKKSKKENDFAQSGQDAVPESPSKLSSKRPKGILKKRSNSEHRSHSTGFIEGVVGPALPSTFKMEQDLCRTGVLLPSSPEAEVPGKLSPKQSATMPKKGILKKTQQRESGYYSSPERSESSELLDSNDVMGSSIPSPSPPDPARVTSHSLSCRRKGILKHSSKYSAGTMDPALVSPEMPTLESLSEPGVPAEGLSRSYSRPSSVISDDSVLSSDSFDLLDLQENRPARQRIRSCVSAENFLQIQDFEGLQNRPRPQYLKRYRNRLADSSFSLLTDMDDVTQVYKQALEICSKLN
T15 sequence (Q16620 32-822): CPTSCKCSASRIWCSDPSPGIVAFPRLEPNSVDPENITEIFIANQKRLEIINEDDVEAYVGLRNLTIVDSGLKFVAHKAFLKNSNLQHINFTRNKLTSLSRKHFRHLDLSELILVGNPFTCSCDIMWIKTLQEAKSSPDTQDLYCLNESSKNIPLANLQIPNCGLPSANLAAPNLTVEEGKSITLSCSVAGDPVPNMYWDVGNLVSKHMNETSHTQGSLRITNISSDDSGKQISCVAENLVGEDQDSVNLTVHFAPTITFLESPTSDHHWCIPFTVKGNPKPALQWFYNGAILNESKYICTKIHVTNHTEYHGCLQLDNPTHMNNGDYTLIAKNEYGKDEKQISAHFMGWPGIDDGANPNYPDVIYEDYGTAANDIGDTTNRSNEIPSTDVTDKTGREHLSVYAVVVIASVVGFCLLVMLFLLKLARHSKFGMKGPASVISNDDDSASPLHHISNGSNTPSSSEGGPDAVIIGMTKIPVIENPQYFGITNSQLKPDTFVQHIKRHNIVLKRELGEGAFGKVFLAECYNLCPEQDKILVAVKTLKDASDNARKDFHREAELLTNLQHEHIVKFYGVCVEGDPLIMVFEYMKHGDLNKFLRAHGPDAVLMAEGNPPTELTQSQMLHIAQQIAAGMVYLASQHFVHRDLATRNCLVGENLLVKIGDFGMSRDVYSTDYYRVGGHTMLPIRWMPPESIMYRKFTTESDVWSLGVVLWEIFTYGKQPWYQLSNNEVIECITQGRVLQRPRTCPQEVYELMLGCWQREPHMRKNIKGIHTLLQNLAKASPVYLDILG
T22 sequence (Q00536 whole entry): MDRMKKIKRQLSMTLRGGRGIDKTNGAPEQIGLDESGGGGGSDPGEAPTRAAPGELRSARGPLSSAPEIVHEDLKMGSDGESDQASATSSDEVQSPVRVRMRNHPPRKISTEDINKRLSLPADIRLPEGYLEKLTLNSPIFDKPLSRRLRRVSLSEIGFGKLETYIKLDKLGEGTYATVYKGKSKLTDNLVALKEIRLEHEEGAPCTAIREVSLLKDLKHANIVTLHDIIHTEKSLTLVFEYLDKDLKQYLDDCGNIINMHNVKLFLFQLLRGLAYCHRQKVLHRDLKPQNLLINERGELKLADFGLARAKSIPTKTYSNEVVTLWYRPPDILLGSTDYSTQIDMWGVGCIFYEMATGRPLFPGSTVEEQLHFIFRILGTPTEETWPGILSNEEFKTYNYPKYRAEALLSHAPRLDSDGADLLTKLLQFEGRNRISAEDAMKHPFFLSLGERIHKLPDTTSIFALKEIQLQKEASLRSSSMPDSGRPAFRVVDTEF
T22 sequence (Q8ND76 whole entry partner): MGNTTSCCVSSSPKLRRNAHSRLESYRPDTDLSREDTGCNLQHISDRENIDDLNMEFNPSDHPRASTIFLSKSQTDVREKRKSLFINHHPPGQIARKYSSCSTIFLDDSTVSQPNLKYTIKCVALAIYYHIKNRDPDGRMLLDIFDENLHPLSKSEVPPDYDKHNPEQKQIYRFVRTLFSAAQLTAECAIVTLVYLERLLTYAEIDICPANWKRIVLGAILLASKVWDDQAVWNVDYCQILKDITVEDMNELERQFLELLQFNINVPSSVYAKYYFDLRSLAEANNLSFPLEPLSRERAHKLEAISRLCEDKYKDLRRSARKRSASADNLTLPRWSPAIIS
T18 sequence (Q96NX5 whole entry): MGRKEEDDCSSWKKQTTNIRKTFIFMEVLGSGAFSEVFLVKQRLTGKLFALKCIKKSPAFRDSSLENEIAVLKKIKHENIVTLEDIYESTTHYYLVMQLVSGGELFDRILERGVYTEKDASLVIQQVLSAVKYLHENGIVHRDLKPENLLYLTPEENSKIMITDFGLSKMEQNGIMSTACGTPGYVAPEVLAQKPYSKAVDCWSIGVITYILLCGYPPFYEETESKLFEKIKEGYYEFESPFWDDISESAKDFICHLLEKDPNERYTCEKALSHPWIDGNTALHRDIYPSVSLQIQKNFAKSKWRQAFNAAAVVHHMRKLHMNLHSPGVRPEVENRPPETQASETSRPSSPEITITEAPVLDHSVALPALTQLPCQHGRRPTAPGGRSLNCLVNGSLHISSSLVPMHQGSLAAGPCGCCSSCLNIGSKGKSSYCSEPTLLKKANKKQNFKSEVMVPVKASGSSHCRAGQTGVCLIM

Cc1cnc(N[C@H]2CC[C@H](N)CC2)nc1-c1cnc2ccc(-c3ccccc3)cn12 [CDDD11-8]
remaining activity at 1 µM (TSSK3/STK22C): 98.3%
remaining activity at 1 µM (TYK1/LTK): 90.8%
remaining activity at 1 µM (CHK2): 97.2%
remaining activity at 1 µM (PLK2): 97.5%
remaining activity at 1 µM (LKB1): 102%
remaining activity at 1 µM (TTBK2): 93%
remaining activity at 1 µM (CTK/MATK): 123%
remaining activity at 1 µM (JNK2): 103%
remaining activity at 1 µM (MLCK2/MYLK2): 25.9%
remaining activity at 1 µM (PKN2/PRK2): 88.3%
remaining activity at 1 µM (TRKC): 1.95%
remaining activity at 1 µM (VRK1): 42.4%
remaining activity at 1 µM (ALK3/BMPR1A): 98%
remaining activity at 1 µM (CDK3/cyclin E): 77.9%
remaining activity at 1 µM (TRKB): 10.8%
remaining activity at 1 µM (NEK2): 90.7%
remaining activity at 1 µM (TAK1): 77.8%
remaining activity at 1 µM (CAMK1g): 97.7%
remaining activity at 1 µM (SGK1): 95.4%
remaining activity at 1 µM (MST1/STK4): 8.89%
remaining activity at 1 µM (CDK2/cyclin A): 55%
remaining activity at 1 µM (CDK16/cyclin Y (PCTAIRE)): 57.4%
remaining activity at 1 µM (ABL1): 76.8%
remaining activity at 1 µM (DCAMKL1): 113%
remaining activity at 1 µM (TXK): 60.4%
remaining activity at 1 µM (TAOK3/JIK): 48.6%
remaining activity at 1 µM (ARK5/NUAK1): 7.93%
remaining activity at 1 µM (PKCeta): 47.3%
remaining activity at 1 µM (CAMK2g): 96.8%
remaining activity at 1 µM (JAK3): 48.5%
